1 compound from paper PMC9227231, “TP-CSO: A Triptolide Prodrug for Pancreatic Cancer Treatment” (Molecules, 2022) can be followed below.

What is called AUC(0-inf) is the area under the concentration-time curve extrapolated to infinity. Read a low AUC(0-inf) as low exposure. The term Cmax denotes the maximum level reached in the sampled fluid or tissue. The Tmax is the time from dosing to the highest level. One may read the half-life as the time in which the quantity being followed falls by half.

Series [1] is described as follows: Pharmacokinetics after gavage administration to rats (plasma level of free TP by LC-MS). As to conditions: Sprague-Dawley, rat, in vivo, po, 0.4 mg/kg. More on the design: species or system SD rats. As to the method:
To evaluate the in vivo pharmacokinetics of TP-CSO conjugate, the SD rats (250–300 g, Sprague-Dawley rat) fasted 12 h in advance and were randomized into two groups (n = 5) and respectively treated with TP (0.4 mg/kg) and TP-CSO (0.4 mg/kg, TP equivalent). The blood samples (500 µL) were collected through the ocular chorionic vein at 5, 15, 30, 60, 120, 180, 240, 360, 480 and 720 min after intragastric administration. Subsequently, the samples were immediately centrifuged at 3500 rpm for 15 min. An upper plasma sample was collected and kept at −80 °C.
Sample processing: to the plasma sample,10 µL of ferulic acid (2.5 ng/mL) was added as internal standard. The sample (100 µL) was placed in a 1.5 mL Eppendorf tube, to which 800 µL of ethyl acetate was added and vortexed for 3 min, and this was centrifuged at 12,000 rpm for 15 min. The upper solution was taken and blow dried with nitrogen at room temperature. The dried residue was dissolved in 100 µL of methanol-water (60:40, v/v) solution, vortexed for 3 min, subsequently centrifuged at 12,000 rpm for 15 min at 4 °C and the upper solution was collected into a 2 mL vial.
10 μL of sample was injected into a Watets C-18 column (2.1 mm × 50 mm, 1.8 µm) on a Sciex X500R QTOF Mass Spectrometer (UPLC-MS; Framingham, MA, USA). The column was eluted with methanol (A)/water (B) solution at a flow rate of 0.3 mL/min and a column temperature of 35 °C (0–6 min, A: 40%–90%; 6–8.1 min, A: 90%; 8.1–10 min, A: 40%). The operating conditions of UPLC-MS are as follows: electrospray ionization source (ESI), negative ionization mode; Ion spray voltage (ISV), 3500 V; Drying temperature, 325 °C; Flow rate of desolvent gas, 8.0 L/min; Atomization temperature, 350 °C. The pyrolysis energy and impact energy of TP were 120 V and 10 V, respectively, and those of ferulic acid were 90 V and 10 V, respectively. A multiple reaction monitoring mode (MRM) was used to monitor the transformation of TP from m/z [M-H] 359.1→241.1 and ferulic acid m/z [M-H] 193.1→134.1 to productions.

Series [2] is described as follows: In vivo toxicity in healthy C57 mice. The method, then:
The 30 normal C57 mice (20–25 g) were randomly divided into a normal saline group, TP (0.4 mg/kg) group and TP-CSO group (equivalent TP of 0.2, 0.4 and 0.6 mg/kg), respectively. The drugs were administered by a gavage once every two days for seven times. The body weight and fatality rate were recorded daily. On the 14th day, blood was collected from the eyes, and the organs were harvested after the mice were euthanized. A Beckman CX5 automated analyzer detected renal function indexes, liver function indexes (serum alanine aminotransferase (ALT), aspartic aminotransferase (AST)), and (blood urea nitrogen (BUN) creatinine (CRE)).

The subject of series [3] is Panco2 tumor. As to the kind of experiment: In vivo antitumor study in Panco2 tumor-bearing mice. The method, then: The antitumor activity of the TP-CSO conjugate was evaluated on Panco2 tumor-bearing mice. First, C57 mice (20–25 g) were implanted subcutaneously with 2 × 10^6 Panco2 cells. When the tumor grew up to about 100 mm^3, the mice were orally administrated with 0.4 mg/kg TP and TP-CSO (0.2, 0.4 and 0.6 mg TP equivalent/kg) once every two days, respectively. The body weight and fatality rate were recorded. Mice in control groups were orally administrated with saline solution. The tumor volume was measured with calipers and calculated by the (1/2) (a × b²) formula (a is long diameter, b is short diameter). After 14 days of intragastric administration, the mice were sacrificed, and livers, kidney, and tumors were harvested.

The mark [4] stands for this setting: healthy C57 mice, day 14, 0.4 mg/kg TP equivalent (medium dose).

For `CC(C)[C@]12O[C@H]1[C@@H]1O[C@]13[C@]1(O[C@H]1C[C@H]1C4=C(CC[C@@]13C)C(=O)OC4)[C@@H]2O` [TP, Triptolide], in series [1], the AUC(0-inf) was found to be 0.061 ng·h/mL, the highest level (Cmax) was 0.021 ng/mL, the Tmax is 15 min and the half-life was 42.6 min. Moreover, in series [2] (setting [4]), the “BUN and CRE levels” value was “significantly lower than in the control group”; the “serum ALT and AST levels” value is reported as “obviously higher than those in other groups”. For the same compound, the “body weight vs control group” value in series [2] (healthy C57 mice, gavage once every two days x7, 0.4 mg/kg TP equivalent (medium dose)) was “obvious body weight loss but without lethality”. In addition, the “minimum dose causing the death of mice” value in series [2] (mice, preliminary experiments) is given as “about 0.6 mg/kg”. In series [3] (Panco2-bearing mice, oral once every two days, end of study, 0.4 mg TP equivalent/kg (medium dose)), the “tumor-inhibition rate (TIR)” value came to 43.39%. The “body weight vs control group” value in series [3] (mouse, in vivo, po, 0.4 mg/kg) is recorded as “obvious decrease in body weight”.
